Measurements: patent US20120015953A1, “METHODS AND COMPOSITIONS FOR THE TREATMENT OF ALLERGY” (priority 2010, published 2012)

What was measured:
[1] = test system: passively sensitized guinea pigs; assay: acute phase clinical score of conjunctivitis, passively sensitized guinea pigs challenged with ovalbumin; format: in vivo, guinea pig; conditions: for effect on olopatadine's inhibition of the acute clinical score: H4 antagonist topical once daily, 0.2% olopatadine 5 minutes later, antigen challenge 60 minutes after dose, scored 30 min after challenge (FIGS. 1, 4); for effect on olopatadine's acute phase effects under different dosing regimens: administered before, after, or in the same drop as 0.2% olopatadine (FIGS. 3, 6); for effect on acute phase clinical score on their own: compound alone, topical, 1 hour prior to challenge
Procedure: (§1) H1 and H4 antagonists were evaluated using an in vivo assay to determine the effect of the H4 antagonist on a co-administered H1 antagonist. Male Hartley VAF outbred guinea pigs were passively sensitized to ovalbumin by a single OD subconjunctival injection of undiluted guinea pig anti-ovalbumin antiserum 24 hours before OD topical challenge with 500 μg ovalbumin in saline. Control animals were injected with saline only and challenged with ovalbumin. To determine acute phase drug efficacy, 30 min after challenge animals were clinically scored by a masked observer for severity of signs of conjunctivitis based on a standard scale.
(§2) Test compounds were administered topically 1 hour prior to challenge. Twenty-four hours after challenge, animals were euthanized and conjunctivae were harvested for determination of tissue eosinophil peroxidase (EPO) concentration as a marker of allergic inflammation and late phase effects. Homogenates of freshly collected tissues were prepared by shaking the tissues in 2 mL round-bottom tubes containing 0.5 mL of homogenization buffer (50 mM Tris HCl, pH 8.0, 6 mM KBr) and one 5-mm stainless steel bead on a Qiagen TissueLyser at 30 Hz for 5 min. Homogenates were frozen and thawed once, then centrifuged at 10,000 rpm for 5 min. EPO activity in supernatants was measured by reacting diluted homogenates with a solution of 6 mM o-phenylenediamine substrate and 8.8 mM H2O2 in homogenization buffer for 3 min. The reaction was stopped with 4M H2SO4 and absorbances were measured at […] on a spectrophotometry plate reader. Total EPO in samples was calculated from a standard curve of recombinant human EPO in each assay. EPO activity was normalized to total protein concentration (Pierce BCA assay) in supernatants. Background EPO activity was determined from the unsensitized, antigen-challenged control group. Percent inhibition was calculated from the sensitized, antigen-challenged, vehicle-treated control group in each experiment. Ovalbumin-injected animals dosed topically with 0.1% w/v dexamethasone (dex) served as positive control. Groups were compared by ANOVA with Dunnett's or Tukey's post-hoc tests where appropriate with significance assigned at the 95% confidence level.

[2] = test system: tissue eosinophil peroxidase (EPO); assay: late phase allergic response, conjunctival tissue eosinophil peroxidase (EPO) 24 h after challenge; format: in vivo, guinea pig; conditions: for inhibition of late phase allergic response: compound alone, EPO 24 hours after challenge (FIGS. 2, 5); for inhibition of late phase response with concomitant olopatadine: concomitant dosing with 0.2% olopatadine (FIGS. 2, 5)
Procedure: as §1, §2

| Compound | effect on olopatadine's inhibition of the acute clinical score [1] | effect on olopatadine's acute phase effects under different dosing regimens [1] | effect on acute phase clinical score on their own [1] | inhibition of late phase allergic response [2] | inhibition of late phase response with concomitant olopatadine [2] |
| --- | --- | --- | --- | --- | --- |
| Clc1ccc2nc(N3CCNCC3)c3nnnn3c2c1 [Compound 2, 8-chloro-4-(piperazin-1-yl)tetrazolo[1,5-a]quinoxaline] | does not show suppression of olopatadine's acute phase effects | These effects on acute phase response are not seen | Neither Compound 1 nor Compound 2 demonstrate any effect on acute phase clinical score on their own | very good inhibitors of late phase allergic response | slight increase in the inhibition of late phase response |
| CN1CCN(c2nc3ccc(C(F)(F)F)cc3n3cnnc23)CC1 [Compound 1, 4-(4-methylpiperazin-1-yl)-8-(trifluoromethyl)-[1,2,4]triazolo[4,3-a]quinoxaline] | dose dependent effect on the inhibition of the acute clinical score relative to olopatadine alone | reduction of olopatadine's acute phase effects and dose dependency | Neither Compound 1 nor Compound 2 demonstrate any effect on acute phase clinical score on their own | very good inhibitors of late phase allergic response | slight increase in the inhibition of late phase response |
